Results reported in patent publication US20110130413A1, “SUBSTITUTED QUINAZOLINES” (Shire LLC, priority 2008, published 2011).
≈ marks a conversion by molar mass, not a printed value. Where “and” joins values, the source holds several entries; their conditions need not be identical. Identical values can stand only once. Marks after values point to notes of the source that are not given here. Each block holds one compound with its values, some of them ahead of it.

Columns and labels:
Solubility = type: physicochemical
[1] = Comparative bioavailability study in the dog; type: in vivo
Description: The potential benefit of improved water solubility on the absorption of these open-ring analogues was shown in a comparative bioavailability study in the dog. Using the unsubstituted ethyl-5,6-dichloro-3,4-dihydro-2-(1H)-iminoquinazoline-3-acetate HBr as a model compound, a comparison was made of the systemic availability of anagrelide when given as this compound or as anagrelide itself in equimolar doses ([…]).

[2] = Conversion of ring open prodrug to anagrelide in human plasma (LC/MS-MS); type: in vitro ADME; settings: human plasma spiked 100 ng/mL, room temperature, first point of measurement (immediately after mixing)
Protocol: Such prodrugs are likely to be extremely rapidly and completely cyclised in plasma to the closed ring 3-alkylanagrelide analogues. […] Human plasma was spiked with anagrelide prodrug (final concentration 100 ng/mL). Immediately after mixing, and at 15, 30, 45 and 60 minutes afterward samples were analysed for anagrelide prodrug and anagrelide.

PDEIII = PDEIII inhibition; type: biochemical; settings: more potent than anagrelide itself
[3] = male dogs, single oral (capsule), anagrelide 6.1 mg/kg or ester prodrug 7.5 mg/kg, individual dogs
[4] = male dogs, single oral (capsule), anagrelide 6.1 mg/kg or ester prodrug 7.5 mg/kg, individual dogs, listed as Ester prodrug of anagrelide, HBr
[5] = male dogs, single oral (capsule), anagrelide 6.1 mg/kg or ester prodrug 7.5 mg/kg, median

- solubility (Solubility; aqueous solution, aqueous buffer, at pH 11.4): ~1000 µg/mL (≈ 3900 µM)
- solubility (Solubility; aqueous solution, aqueous buffer, pH range of 4-8): < 10 µg/mL
- solubility (Solubility; simulated gastric fluid, in 0.1M HCl): ~170 µg/mL (≈ 664 µM)
- Tmax of anagrelide [1, 3]: 2 h
SMILES: O=C1CN2Cc3c(ccc(Cl)c3Cl)N=C2N1 [anagrelide, 6,7-dichloro-1,5-dihydroimidazo[2,1-b]-quinazolin-2(3H)-one]
- k of anagrelide [1, 3]: 0.4459 ^c hours^−1 and 0.3119 ^c hours^−1 and 0.1953 ^d hours^−1

SMILES: Br.CCOC(=O)CN1Cc2c(ccc(Cl)c2Cl)NC1=N [ethyl-5,6-dichloro-3,4-dihydro-2-(1H)-iminoquinazoline-3-acetate HBr]
- prodrug remaining in human plasma (conversion to anagrelide) [2]: no prodrug could be found
- Cmax for anagrelide, range over dogs ([1]; dog, oral, equimolar doses): 170-418 ngmL^−1
- t½ of 3-hydroxy anagrelide, calculated as ln2/(mean rate constant) ([1]; male dogs, single oral (capsule), anagrelide 6.1 mg/kg or ester prodrug 7.5 mg/kg): 2.1 ^e hours
- AUCinfin of 3-hydroxy anagrelide [1, 4]: 1290 ^c ng · h/mL
- AUCinfin of anagrelide [1, 4]: 1440 ^d ng · h/mL
- k of 3-hydroxy anagrelide [1, 4]: 0.1235 ^c hours^−1
- k of anagrelide [1, 4]: 0.1789 ^d hours^−1
- t½ of 3-hydroxy anagrelide [1, 4]: 5.6 ^c hours
- t½ of anagrelide [1, 4]: 3.9 ^d hours
- Tmax of 3-hydroxy anagrelide, median [1, 5]: 3.5 ^b hours
- Tmax of anagrelide, median [1, 5]: 3.5 ^b hours
- t½ of anagrelide, calculated as ln2/(mean rate constant) ([1]; male dogs, single oral (capsule), ester prodrug 7.5 mg/kg): 1.8 ^f hours

SMILES: O=C1NC2=Nc3ccc(Cl)c(Cl)c3CN2C1O (stereo not drawn) [3-hydroxyanagrelide]
- potency as an inhibitor of PDEIII relative to anagrelide (PDEIII): ~40 fold
